Source: patent publication US4520112A, “Assay method for organic calcium antagonist drugs and a kit for such an assay” (The Johns Hopkins University, priority 1983, dated 1985)

Test system: calcium antagonist receptors
Assay: not given
Conditions: literature reports; cited from earlier work

Structure (SMILES)	effect on 3H-nitrendipine binding
COC(=O)C1=C(C)NC(C)=C(C(=O)OC)C1c1ccccc1[N+](=O)[O-] [nifedipine]	compete directly
COc1ccc(CCN(C)CCCC(C#N)(c2ccc(OC)c(OC)c2)C(C)C)cc1OC (stereo not shown) [verapamil]	interact allosterically with the same receptor site and also reduce ^3 H-nitrendipine binding
COc1ccc([C@@H]2Sc3ccccc3N(CCN(C)C)C(=O)[C@@H]2OC(C)=O)cc1 [diltiazem]	interact allosterically with the same receptor site and also reduce ^3 H-nitrendipine binding

Test system: calcium channel receptor (bovine cerebral cortex membranes)
Assay: 3H-nitrendipine binding to cerebral cortex membranes (calcium channel receptor)
Conditions: drug added to human plasma

Structure (SMILES)	effect on 3H-nitrendipine binding
CC(Cc1ccccc1)NCCC(c1ccccc1)c1ccccc1 (stereo not shown) [prenylamine]	inhibition
COCCOC(=O)C1=C(C)NC(C)=C(C(=O)OC(C)C)C1c1cccc([N+](=O)[O-])c1 (stereo not shown) [Nimodipine, nimodipine]	inhibition
COc1ccc([C@@H]2Sc3ccccc3N(CCN(C)C)C(=O)[C@@H]2OC(C)=O)cc1 [diltiazem]	reversal of tiapamil induced reduction
COc1ccc(CCN(C)CCCC2(c3ccc(OC)c(OC)c3)S(=O)(=O)CCCS2(=O)=O)cc1OC [tiapamil]	reduction
